{
  "source": "patent US5262522A",
  "about": "“Receptor for oncostatin M and leukemia inhibitory factor” (Immunex Corporation, priority 1991, dated 1993)",
  "test_system": "oncostatin M",
  "experiment": "Oncostatin M binding assay (phthalate oil separation, Scatchard) on transfected COS-7 cells",
  "details": "cells preincubated with non-radiolabeled LIF before 125I-oncostatin M (curve B)",
  "from_the_text": "Oncostatin M may be purified from cells in which the protein is naturally found, or from cells transformed with an expression vector encoding oncostatin M. One source of oncostatin M is phorbol ester-treated U937 cells, as described by Zarling et al., PNAS U.S.A. 83:9739 (1986). Purification of recombinant oncostatin M is described by Linsley et al., J. Biol. Chem. 264:4282-4289 (1989), which is hereby incorporated by reference in its entirety.\nOncostatin M may be radiolabeled using any suitable conventional procedure, such as the radioiodination procedure employed to radiolabel LIF in Example 1. The radio-iodination of oncostatin M has also been described by Linsley et al., supra.\nThe resulting radiolabeled oncostatin M may be substituted for radiolabeled LIF (using the same concentrations and other reaction parameters) in the assay procedures described in Example 1 in order to detect proteins and cells that bind oncostatin M. An assay for binding of ^125 I-oncostatin M to cells is also described in Linsley et al., supra.\nCOS-7 cells transfected with vector(s) encoding gp130 or LIF-R were assayed for the ability to bind oncostatin M. In separate transfections, COS-7 cells were transfected with the following combinations of vectors. […]",
  "data": [
    {"substance": "gp130 and LIF-R: receptor of gp130 and LIF-R co-expressed on COS-7 cells co-transfected with vectors B10G and pHLIFR-65", "values": [
      {"measurement": "binding of oncostatin M after preincubation with LIF", "result": "did not bind oncostatin M in any measurable amount above that bound by the non-transfected COS-7 cells"}
    ]}
  ]
}
